EC50 data for 44 molecules are collected here from patent US8604034B2, “Substituted imidazo[1,2-α]pyrrolo[1,2-d]pyrazines for treating respiratory syncytial virus (RSV) infections” (Biota Scientific Management Pty Ltd., priority 2010, dated 2013).

What is called EC50 is the concentration needed to bring the measured effect to its halfway point.

The assay deals with RSV A2. In words: RSV antiviral cytopathic effect (CPE) assay. In kind it is cell-based. The following applies: human respiratory syncytial virus, HEp-2, 120 h, HEp2 cells infected with RSV A2 (moi ~0.01), 5 days, MTT readout. The protocol:
Compounds of the invention were tested for their antiviral activity against respiratory syncytial virus. Cytopathic effect (CPE) assays were performed essentially as described in the literature (see for example Watanabe et al, 1994, J. Virological Methods, 48:257). Serial dilutions of the test compounds were made in 96 well plates. HEp2 cells (1.0×10^4 cells/well) were infected with RSV at a low multiplicity of infection (e.g. RSV A2 at an moi of ˜0.01) and added to plates to assess antiviral activity. Uninfected HEp2 cells were used to assess compound cytotoxicity. Assays were incubated for 5 days at 37° C. in a 5% CO2 atmosphere. The extent of CPE was determined via metabolism of the vital dye 3-(4,5-dimethylthiaxol-2-yl)-2,5-diphenyltetrazolium bromide (MTT). MTT (1 mg/ml) was added to each well and plates incubated for 2 hours incubation at 37° C. Wells were aspirated, iso-propanol (200 μL) was added and absorbance values read at 540/650 nm. Compound concentrations that inhibited CPE by 50% (EC50) and developed cytotoxicity (CC50) were calculated using non-linear regression analysis.
Representative mean EC50 values obtained are also provided. In the inventors' experience, replicate EC50 values usually fall within three standard deviations of the mean.

The mark [1] stands for this setting: read-out: Activity Range (RSV A2 EC50).
Where [2] appears, read: mean EC50, read-out: RSV A2 EC50.

Counter-ions that a name gives are not always drawn. Like-named read-outs stand apart in the source and are kept apart here.

Consider `Cc1nocc1C(=O)N1CCN2C(=O)c3cc(-c4ccccc4)nn3CC12c1ccc(Cl)cc1` (centres unmarked) [Compound 64], for which the EC50 runs as follows: under setting [1], 500 to 10000 nM; under setting [2], 8600 nM.
With `Cc1cc2n(n1)CC1(c3ccc(Cl)cc3)NCCN1C2=O` (centres unmarked) [Compound 47], under setting [1], the EC50 was over 10000 nM.
As to `Cc1nocc1C(=O)N1CCN2C(=O)c3cc(CO)cn3CC12c1ccc(Cl)cc1` (centres unmarked) [Compound 29], the EC50 runs as follows: under setting [1], 500 to 10000 nM; under setting [2], 1000 nM.
Taken in the same sequence, the figures for `Cc1nocc1C(=O)N1CCN2C(=O)c3cc(-c4cnn(C)c4)cn3CC12c1ccc(CO)cc1` (centres unmarked) [Compound 144] were 50 to 99 nM and 79 nM.
As to `Cc1nocc1C(=O)N1CCN2C(=O)c3cccn3CC12c1ccc(C#N)cc1` (centres unmarked) [Compound 37, 4-{1-[(3-methyl-1,2-oxazol-4-yl)carbonyl]-5-oxo-2,3-dihydro-1H,5H-imidazo[1,2-a]pyrrolo[1,2-d]pyrazin-10a(10H)-yl}benzonitrile], the EC50 by setting is: under setting [1], 100 to 499 nM; under setting [2], 120 nM.
As to `Cc1cc2n(n1)CC1(c3ccc(Cl)cc3)N(C(=O)c3cccnc3)CCN1C2=O` (centres unmarked) [Compound 44], under setting [1], the EC50 was over 10000 nM.
On to `Cc1cc2n(n1)CC1(c3ccc(Cl)cc3)N(C(=O)NCc3ccccc3)CCN1C2=O` (centres unmarked) [Compound 46], for which, under setting [1], the EC50 was over 10000 nM.
Regarding `Cc1nocc1C(=O)N1CCN2C(=O)c3cccn3CC12c1cccs1` (centres unmarked) [Compound 74], the EC50 was 100 to 499 nM under setting [1] and 220 nM under setting [2].
Taken in the same sequence, the figures for `C#Cc1ccc2n1CC1(c3ccc(OC)cc3)N(C(=O)c3conc3C)CCN1C2=O` (centres unmarked) [Compound 108, 8-ethynyl-10a-(4-methoxyphenyl)-1-[(3-methyl-1,2-oxazol-4-yl)carbonyl]-2,3,10,10a-tetrahydro-1H,5H-imidazo[1,2-a]pyrrolo[1,2-d]pyrazin-5-one] were under 49 nM and 17 nM.
On to `Cc1ccc(C23Cn4c(cccc4=O)C(=O)N2CCN3C(=O)c2conc2C)cc1` (centres unmarked) [Compound 150], for which the EC50 runs as follows: under setting [1], under 49 nM; under setting [2], 11 nM.
Taken in the same sequence, the figures for `Cc1ccc(C23Cn4nc(-c5ccccn5)cc4C(=O)N2CCN3C(=O)c2conc2C)cc1` (centres unmarked) [Compound 139] were 50 to 99 nM and 66 nM.
In the case of `Cc1nocc1C(=O)N1CCN2C(=O)c3cc(-c4cccnc4)cn3CC12c1ccc(CO)cc1` (centres unmarked) [Compound 95, 10a-[4-(hydroxymethyl)phenyl]-1-[(3-methyl-1,2-oxazol-4-yl)carbonyl]-7-(pyridin-3-yl)-2,3,10,10a-tetrahydro-1H,5H-imidazo[1,2-a]pyrrolo[1,2-d]pyrazin-5-one], the EC50 is, setting by setting: under setting [1], 100 to 499 nM; under setting [2], 160 nM.
Take `Cc1nocc1C(=O)N1CCN2C(=O)c3cccn3CC12c1ccc2c(c1)CCO2` (centres unmarked) [Compound 57]: the EC50 is under 49 nM under setting [1] and 14 nM under setting [2].
Regarding `Cc1nocc1C(=O)N1CCN2C(=O)c3cc(CN(C)C)cn3CC12c1ccc(Cl)cc1` (centres unmarked) [Compound 27], the EC50 is 500 to 10000 nM under setting [1] and 9500 nM under setting [2].
For the molecule `COc1ccc(C23Cn4cccc4C(=O)N2CCN3C(=O)c2conc2C(F)(F)F)cc1` (centres unmarked) [Compound 52], the EC50 runs as follows: under setting [1], under 49 nM; under setting [2], 24 nM.
The matching figures for `Cc1nocc1C(=O)N1CCN2C(=O)c3cccn3CC12c1ccc(N2CCCC2)cc1` (centres unmarked) [Compound 36, 1-[(3-methyl-1,2-oxazol-4-yl)carbonyl]-10a-[4-(pyrrolidin-1-yl)phenyl]-2,3,10,10a-tetrahydro-1H,5H-imidazo[1,2-a]pyrrolo[1,2-d]pyrazin-5-one]: 100 to 499 nM and 480 nM.
Turning to `COc1ccc(C23Cn4c(Cl)ccc4C(=O)N2CCN3C(=O)c2conc2C)cc1` (centres unmarked) [Compound 23], the EC50 is under 49 nM under setting [1] and 8 nM under setting [2].
The matching figures for `Cc1oncc1C(=O)N1CCN2C(=O)c3ccc(-c4ccncc4)n3CC12c1ccc(Cl)cc1` (centres unmarked) [Compound 32, 10a-(4-chlorophenyl)-1-[(5-methyl-1,2-oxazol-4-yl)carbonyl]-8-(pyridin-4-yl)-2,3,10,10a-tetrahydro-1H,5H-imidazo[1,2-a]pyrrolo[1,2-d]pyrazin-5-one]: 500 to 10000 nM and 690 nM.
As for `Cc1nocc1C(=O)N1CCN2C(=O)c3ccc(CO)n3CC12c1ccc(Cl)cc1` (centres unmarked) [Compound 28], the EC50 reads like this: under setting [1], 50 to 99 nM; under setting [2], 88 nM.
Turning to `Cc1nocc1C(=O)N1CCN2C(=O)c3cccn3CC12c1ccsc1` (centres unmarked) [Compound 73], the EC50 by setting is: under setting [1], 100 to 499 nM; under setting [2], 250 nM.
With `COc1ccc(C23Cn4cccc4C(=O)N2CCN3C(=O)NCc2ccco2)cc1` (centres unmarked) [Compound 130], the EC50 under setting [1] was over 10000 nM.
As to `COc1ccc(C23Cn4cc(CN)cc4C(=O)N2CCN3C(=O)c2conc2C)cc1` (centres unmarked) [Compound 147, 7-(aminomethyl)-10a-(4-methoxyphenyl)-1-[(3-methyl-1,2-oxazol-4-yl)carbonyl]-2,3,10,10a-tetrahydro-1H,5H-imidazo[1,2-a]pyrrolo[1,2-d]pyrazin-5-one; trifluoroacetate salt], the EC50 under setting [1] was in the range of 100 to 499 nM and the EC50 under setting [2] turned out to be 390 nM.
As to `Cc1nocc1C(=O)N1CCN2C(=O)c3cccn3CC12C1CCCCC1` (centres unmarked) [Compound 19], the EC50 under setting [1] was in the range of 50 to 99 nM and the EC50 under setting [2] is 65 nM.
Consider `COc1ccc(C23Cn4cc(-c5ccncc5)cc4C(=O)N2CCN3C(=O)c2conc2C)cc1` (centres unmarked) [Compound 84], for which the EC50 reads like this: under setting [1], under 49 nM; under setting [2], 18 nM.
The matching figures for `Cc1cc2n(n1)CC1(c3ccc(Cl)cc3)N(C(=O)c3ccoc3)CCN1C2=O` (centres unmarked) [Compound 43]: 500 to 10000 nM and 3400 nM.
Turning to `COc1ccc(C23Cn4c(cccc4=O)C(=O)N2CCN3C(=O)c2conc2C)cc1` (centres unmarked) [Compound 149], the EC50 was 100 to 499 nM under setting [1] and 130 nM under setting [2].
As to `Cc1nocc1C(=O)N1CCN2C(=O)c3cccn3CC12c1cnn(C)c1` (centres unmarked) [Compound 118], the EC50 is, setting by setting: under setting [1], 100 to 499 nM; under setting [2], 320 nM.
In the case of `COc1ccc(C23Cn4cc(NC5CCCCC5)cc4C(=O)N2CCN3C(=O)c2conc2C)cc1` (centres unmarked) [Compound 112, 7-(cyclohexylamino)-10a-(4-methoxyphenyl)-1-[(3-methyl-1,2-oxazol-4-yl)carbonyl]-2,3,10,10a-tetrahydro-1H,5H-imidazo[1,2-a]pyrrolo[1,2-d]pyrazin-5-one], the EC50 under setting [1] was over 10000 nM.
Turning to `COc1ccc(C23Cn4cc(F)cc4C(=O)N2CCN3C(=O)c2conc2C)cc1` (centres unmarked) [Compound 65], the EC50 is 50 to 99 nM under setting [1] and 66 nM under setting [2].
Turning to `Cc1nocc1C(=O)N1CCN2C(=O)c3ccc(-c4cnn(C)c4)n3CC12c1ccc(F)cc1` (centres unmarked) [Compound 96], the EC50 is, setting by setting: under setting [1], 100 to 499 nM; under setting [2], 150 nM.
Regarding `COc1ccc(C23Cn4cccc4C(=O)N2CCN3C(=O)c2conc2C(C)C)cc1` (centres unmarked) [Compound 68], the EC50 was 50 to 99 nM under setting [1] and 53 nM under setting [2].
In the case of `COc1ccc(C23Cn4cccc4C(=O)N2CCN3S(=O)(=O)c2ccccc2)cc1` (centres unmarked) [Compound 131], the EC50 under setting [1] is over 10000 nM.
For the molecule `Cc1nocc1C(=O)N1CCN2C(=O)c3cc(-c4ccccn4)nn3CC12c1ccc(F)cc1` (centres unmarked) [Compound 129], the EC50 under setting [1] was in the range of 100 to 499 nM and the EC50 under setting [2] amounted to 130 nM.
With `Cc1ccc(C23Cn4cc(Br)cc4C(=O)N2CCN3)cc1` (centres unmarked) [Compound 86], the EC50 under setting [1] is over 10000 nM.
As to `Cc1nocc1C(=O)N1CCN2C(=O)c3cccc(=O)n3CC12c1ccc(F)cc1` (centres unmarked) [Compound 148], the EC50 is under 49 nM under setting [1] and 38 nM under setting [2].
Consider `COc1ccc(C23Cn4nc(-c5ccccn5)cc4C(=O)N2CCN3C(=O)c2conc2C)cc1` (centres unmarked) [Compound 138], for which the EC50 runs as follows: under setting [1], 500 to 10000 nM; under setting [2], 4200 nM.
For `Cc1nocc1C(=O)N1CCN2C(=O)c3ccc(-c4cccnc4)n3CC12c1ccc(F)cc1` (centres unmarked) [Compound 97], the EC50 reads like this: under setting [1], 100 to 499 nM; under setting [2], 460 nM.
In the case of `Cn1cc(C(=O)N2CCN3C(=O)c4cccn4CC23c2ccc(Cl)cc2)c(C(F)(F)F)n1` (centres unmarked) [Compound 17], the EC50 is, setting by setting: under setting [1], 500 to 10000 nM; under setting [2], 860 nM.
Turning to `Cc1cnc(C23Cn4cccc4C(=O)N2CCN3C(=O)c2conc2C)cn1` (centres unmarked) [Compound 114], the EC50 under setting [1] is under 49 nM and the EC50 under setting [2] came to 39 nM.
On to `Cc1cc2n(n1)CC1(c3ccc(Cl)cc3)N(C(=O)NCCc3ccccc3)CCN1C2=O` (centres unmarked) [Compound 41, 10a-(4-chlorophenyl)-7-methyl-5-oxo-N-(2-phenylethyl)-2,3,10,10a-tetrahydro-1H,5H-imidazo[1,2-a]pyrazolo[1,5-d]pyrazine-1-carboxamide], for which the EC50 under setting [1] was over 10000 nM.
Turning to `COc1ccc(C23Cn4cc(-c5cccnc5)cc4C(=O)N2CCN3C(=O)c2conc2C)cc1` (centres unmarked) [Compound 83], the EC50 by setting is: under setting [1], 50 to 99 nM; under setting [2], 120 nM.
In the case of `COc1ccc(C23Cn4cccc4C(=O)N2CCN3C(=O)c2cocn2)cc1` (centres unmarked) [Compound 8], the EC50 is, setting by setting: under setting [1], 500 to 10000 nM; under setting [2], 1800 nM.
Consider `COc1ccc(C23Cn4cccc4C(=O)N2CCN3C(=O)c2conc2C)nc1` (centres unmarked) [Compound 115], for which the EC50 under setting [1] is 100 to 499 nM and the EC50 under setting [2] was 230 nM.
As for `CCc1nocc1C(=O)N1CCN2C(=O)c3cccn3CC12c1ccc(OC)cc1` (centres unmarked) [Compound 67], the EC50 is under 49 nM under setting [1] and 17 nM under setting [2].
